Each structure is given as a SMILES string.

Assay [1] is filed under the species Homo sapiens. Kind of assay: Selectivity for human SERT over human NET.
For assay [2], the species on record is Homo sapiens. Kind of assay: Selectivity for human SERT over human DAT.

Take `CN1C2C=C(C3c4ccccc4-c4ccccc43)CC1CC2` (configuration not stated): the Ratio was found to be 120 in the assay filed under Homo sapiens [1] and 13.6 in the assay filed under Homo sapiens [2].

Regarding `CN1C2C=C(c3ccc4c(c3)Cc3ccccc3-4)CC1CC2` (configuration not stated), the Ratio turned out to be 232 in the assay filed under Homo sapiens [1] and 52.2 in the assay filed under Homo sapiens [2].

`CN1C2C=C(c3cccc(-c4ccccc4)c3)CC1CC2` (configuration not stated): the Ratio came out at 34 in the assay listed under Homo sapiens [1] and 10.8 in the assay listed under Homo sapiens [2].

With `CN1C2C=C(c3ccccc3-c3ccccc3)CC1CC2` (configuration not stated), the Ratio in the assay listed under Homo sapiens [1] came out at 3.8; in the assay listed under Homo sapiens [2], 5.4.

For the compound `CN1C2C=C(c3cccc4ccccc34)CC1CC2` (configuration not stated), the Ratio was determined as 94.4 in the assay listed under Homo sapiens [1] and 11.6 in the assay listed under Homo sapiens [2].

On to `CN1C2C=C(c3c[nH]c4ccccc34)CC1CC2` (configuration not stated), for which the Ratio turned out to be 54 in the assay listed under Homo sapiens [1] and 8.3 in the assay filed under Homo sapiens [2].

(Values after ChEMBL document CHEMBL1140853, “The stereochemistry of N-methyl and aryl substituents determine the biological activities of 3-aryl-8-methyl-8-azabicyclo[3.2.1]oct-2,3-enes” (Bioorg Med Chem, 2009).)
